From US20250057958A1, “CYTOTOXICITY TARGETING CHIMERAS FOR CCR2-EXPRESSING CELLS” (GLAXOSMITHKLINE INTELLECTUAL PROPERTY DEVELOPMENT LIMITED, priority 2022, published 2025)

Experiments:
[1] = system: CCR2 expressing cells (CD11b+Ly6c+Hi monocytes); experiment: In vivo depletion assay (flow cytometry of peripheral blood); set-up: species or system human CCR2 (hCCR2) knock-in mice; settings: IV bolus 0.1 mpk compound + 10 mpk anti-cotinine antibody (mouse IgG2a Fc), 48 hours
Protocol: Human CCR2 (hCCR2) knock-in mice (C57 background) were dosed intravenously with a PBS solution containing a compound of Formula (I) to measure depletion of CCR2 expressing cells in peripheral blood. Peripheral blood from IV dosed mice was also analyzed to determine PK properties of the compounds of Formula (I).
Formulations preparation: On the day of experiment, the stock solution of the compound of Formula (I) was removed from storage at −20° C. and thawed at room temperature. Anti-cotinine antibody having a heavy chain sequence of SEQ ID NO: 13 and a light chain sequence of SEQ ID NO: 14 (rabbit variable region sequence with mouse IgG2a Fc domain), if required was removed from storage at −80° C. and thawed at room temperature. Antibody vials were immediately transferred into wet ice after thawing. Compounds of Formula (I) were further diluted in DMSO as per experimental requirements.
Formulation composition: The formulation composition was Saline: DMSO: PBS. Saline was added based on the quantity required and then stock solution of the compound of Formula (1) prepared in DMSO, followed by addition of antibody in PBS. Formulations were incubated at room temperature for 30 minutes before administration to the mouse. DMSO was used at 1 to 2% (v/v) in the final formulation.
Administration to Animal: Solution formulation of antibody and compound of Formula (I) was injected (bolus injection) to the restrained mouse in the right/left lateral tail vein. Animals were dosed with 0.1 milligram per kilogram (mpk) of the compound of Formula (I) and 10 mpk of the anti-cotinine antibody.
Terminal bleeding at end of experiment (48 hr): Approximately 250 μL of blood in K2EDTA tube and approximately 250 μL of blood in SST (serum separation tube) was collected from each mouse through retro-orbital bleeding under deep isoflurane anesthesia. After bleeding, each mouse was sacrificed by cervical dislocation. The blood distribution at termination was determined as follows: • For PK: 50 μL of K2EDTA blood was transferred to another tube for PK • Flow cytometry: Remaining blood (˜200 μL) was used for flow cytometry analysis. • For serum collection: serum separator tubes (BD) were centrifuged at 4° C., 5000 rpm for 15 minutes. Approximately 100 μL serum was separated and stored at −80° C. for further usage. • Blood drug concentration: Samples collected at the various timepoints (0.25 hr, 2 hr, 24 and 48 hr) were analyzed to determine blood drug concentration.
Flow cytometry analysis: CCR2 depletion in peripheral blood was determined by flow cytometry. Briefly, peripheral blood was collected from all animals at the end of study termination and processed. […]
Percent depletion of CD11b+Ly6c+Hi cells and CCR2 expression for the different treatment groups was determined. […]

[2] = target: human alpha1 nicotinic acetylcholine (nACh) receptor (Homo sapiens, UniProt P02708+Q07001); experiment: Nicotinic acetylcholine receptor antagonism assay (IONFlux automated patch clamp); assay type: cell-based; settings: for Emax at 33.3 µM: maximum percentage antagonism at highest concentration tested, read-out: Maximum Response (%); for IC50: nAChR antagonism, stimulated with ACh, average if more than one run
Chain of human alpha1 nicotinic acetylcholine (nACh) receptor (P02708 21-457): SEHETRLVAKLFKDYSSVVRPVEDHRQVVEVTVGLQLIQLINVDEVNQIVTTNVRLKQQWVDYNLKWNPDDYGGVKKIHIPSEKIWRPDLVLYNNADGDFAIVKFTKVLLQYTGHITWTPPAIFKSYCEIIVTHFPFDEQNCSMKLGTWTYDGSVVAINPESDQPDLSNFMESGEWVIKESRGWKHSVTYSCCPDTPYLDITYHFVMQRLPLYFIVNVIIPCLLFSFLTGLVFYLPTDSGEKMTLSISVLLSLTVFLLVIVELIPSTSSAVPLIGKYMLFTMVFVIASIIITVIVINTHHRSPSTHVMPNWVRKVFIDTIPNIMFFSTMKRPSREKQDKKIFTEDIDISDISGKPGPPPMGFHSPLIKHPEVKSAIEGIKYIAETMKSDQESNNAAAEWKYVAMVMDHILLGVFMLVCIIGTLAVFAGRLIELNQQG
Chain of human alpha1 nicotinic acetylcholine (nACh) receptor (P11230 24-501 partner): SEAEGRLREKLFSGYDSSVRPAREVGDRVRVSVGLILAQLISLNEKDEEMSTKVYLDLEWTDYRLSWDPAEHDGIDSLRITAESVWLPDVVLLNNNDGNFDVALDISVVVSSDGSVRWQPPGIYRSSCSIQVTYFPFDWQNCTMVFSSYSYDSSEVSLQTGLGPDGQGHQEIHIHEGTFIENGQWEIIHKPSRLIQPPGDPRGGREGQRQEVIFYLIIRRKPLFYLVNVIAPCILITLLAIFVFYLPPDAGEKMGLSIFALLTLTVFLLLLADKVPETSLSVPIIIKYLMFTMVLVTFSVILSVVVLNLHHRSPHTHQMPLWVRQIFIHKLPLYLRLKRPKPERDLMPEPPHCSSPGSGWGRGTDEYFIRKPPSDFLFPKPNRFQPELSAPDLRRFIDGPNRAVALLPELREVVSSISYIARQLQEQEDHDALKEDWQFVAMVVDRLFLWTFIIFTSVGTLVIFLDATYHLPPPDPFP
Chain of human alpha1 nicotinic acetylcholine (nACh) receptor (Q07001 22-517): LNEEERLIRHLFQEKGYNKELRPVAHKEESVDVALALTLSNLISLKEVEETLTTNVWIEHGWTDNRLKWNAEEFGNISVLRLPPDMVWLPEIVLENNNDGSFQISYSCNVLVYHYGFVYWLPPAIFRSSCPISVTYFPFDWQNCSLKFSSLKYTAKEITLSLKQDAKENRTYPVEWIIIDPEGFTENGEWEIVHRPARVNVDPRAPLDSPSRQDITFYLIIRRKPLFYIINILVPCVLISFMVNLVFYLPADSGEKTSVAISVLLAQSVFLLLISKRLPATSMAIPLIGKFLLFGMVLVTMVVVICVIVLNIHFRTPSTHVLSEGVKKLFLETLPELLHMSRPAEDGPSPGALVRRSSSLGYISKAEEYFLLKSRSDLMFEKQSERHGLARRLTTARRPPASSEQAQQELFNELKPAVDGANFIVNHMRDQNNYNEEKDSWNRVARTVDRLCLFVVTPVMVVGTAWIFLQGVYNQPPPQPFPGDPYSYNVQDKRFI
Source text: Cells expressing human alpha1 nicotinic acetylcholine (nACh) receptor (nAChR) were washed and dissociated using Trypsin containing buffer. Cells were then washed and seeded at a density of 3-5 million cells/mL and allowed to grow for 3 days. […] The receptor was then stimulated via addition of acetylcholine (ACh) and activation of the receptor was monitored via the IONFlux automated patch clamp system. IonFlux Data Analyzer software was utilized to perform leak subtraction and measure (min) peak current amplitude.
Data processing: (1) Current values recorded for vehicle only applications in individual traps/patterns were subtracted from corresponding current amplitude values for control, test article and control+test article. (2) Control response was calculated as % of the average response of the 3rd out of total 3 ACh (10 mM) applications alone. In rare situations, if the 3rd ACh response was obscured due to technical artifacts, the 2nd and/or 1st ACh (10 mM) application was considered as control. The peak current amplitude generated in the presence of each test article concentration was then used to calculate the % inhibition as compared to control response (10 mM ACh alone). These estimates were further corrected for vehicle response and run down corrected by normalizing with time matched control responses (10 mM ACh alone). The corrected percentages were then fit with a non-linear function in GraphPad Prism 6 (or later versions) to determine the IC50.
Exclusion criteria: (i) any n's with poor recording quality, (ii) control current amplitude <500 pA or (iii) significant outliers, as determined by the Grubbs' test.
ARMs compounds of Formula (I) of the invention were tested for antagonism of the nAChR in the above assay in […] experimental runs and the results are shown in Table 5 below. Antagonistic activity of the compounds of Formula (I) of the invention is reported as an IC50 value (half maximal inhibitory concentration) and the maximum percentage antagonism observed at the highest concentration of compound of Formula (I) tested, as indicated in Table 5. For compounds tested in more than one experimental run, the IC50 value is reported as an average.

SMILES: CC(=O)N[C@@H]1C[C@H](NC(C)(C)C)CC[C@@H]1N1CC[C@H](Nc2nc(CCCCNC(=O)[C@H]3CC[C@H](NC(=O)CCCO[C@H]4CC[C@H](OCCNC(=O)[C@H]5CC(=O)N(C)[C@@H]5c5cccnc5)CC4)CC3)nc3ccc(C(F)(F)F)cc23)C1=O [Example 3, (2S,3S)-N-(2-(((1R,4S)-4-(4-(((1S,4R)-4-((4-(4-(((S)-1-((1S,2R,4R)-2-Acetamido-4-(tert-butylamino)cyclohexyl)-2-oxopyrrolidin-3-yl)amino)-6-(trifluoromethyl)quinazolin-2-yl)butyl)carbamoyl)cyclohexyl)amino)-4-oxobutoxy)cyclohexyl)oxy)ethyl)-1-methyl-5-oxo-2-(pyridin-3-yl)pyrrolidine-3-carboxamide]
- % Depletion of CCR2 expressing cells [1]: 84%
- Emax at 33.3 µM [2]: 38%
- IC50 [2]: > 33.3 µM

SMILES: CC(=O)N[C@@H]1C[C@H](NC(C)(C)C)CC[C@@H]1N1CC[C@H](Nc2nc([C@H]3CC[C@@H](NC(=O)[C@H]4CC[C@H](NC(=O)CCCO[C@H]5CC[C@H](OCCNC(=O)[C@H]6CC(=O)N(C)[C@@H]6c6cccnc6)CC5)CC4)CC3)nc3ccc(C(F)(F)F)cc23)C1=O [Example 10, (2S,3S)-N-(2-(((1R,4S)-4-(4-(((1R,4R)-4-(((1R,4S)-4-(4-(((S)-1-((1S,2R,4R)-2-Acetamido-4-(tert-butylamino)cyclohexyl)-2-oxopyrrolidin-3-yl)amino)-6-(trifluoromethyl)quinazolin-2-yl)cyclohexyl)carbamoyl)cyclohexyl)amino)-4-oxobutoxy)cyclohexyl)oxy)ethyl)-1-methyl-5-oxo-2-(pyridin-3-yl)pyrrolidine-3-carboxamide]
- % Depletion of CCR2 expressing cells [1]: 89.71%
- Emax at 33.3 µM [2]: 28%
- IC50 [2]: > 33.3 µM

SMILES: CC(=O)N[C@@H]1C[C@H](NC(C)(C)C)CC[C@@H]1N1CC[C@H](Nc2nc([C@H]3CC[C@H](NC(=O)[C@H]4CC[C@H](NC(=O)CCCO[C@H]5CC[C@H](OCCNC(=O)[C@H]6CC(=O)N(C)[C@@H]6c6cccnc6)CC5)CC4)CC3)nc3ccc(C(F)(F)F)cc23)C1=O [Example 11, (2S,3S)-N-(2-(((1R,4S)-4-(4-(((1S,4R)-4-(((1S,4R)-4-(4-(((S)-1-((1S,2R,4R)-2-Acetamido-4-(tert-butylamino)cyclohexyl)-2-oxopyrrolidin-3-yl)amino)-6-(trifluoromethyl)quinazolin-2-yl)cyclohexyl)carbamoyl)cyclohexyl)amino)-4-oxobutoxy)cyclohexyl)oxy)ethyl)-1-methyl-5-oxo-2-(pyridin-3-yl)pyrrolidine-3-carboxamide]
- % Depletion of CCR2 expressing cells [1]: 95.41%
- Emax at 33.3 µM [2]: 47%
- IC50 [2]: > 33.3 µM
